Target: ABCB1 (P-glycoprotein) (Homo sapiens, UniProt P08183)
Test: ABCB1 ATPase stimulation in plasma membrane vesicles
Format: biochemical

ABCB1 (P-glycoprotein), sequence (P08183 whole entry): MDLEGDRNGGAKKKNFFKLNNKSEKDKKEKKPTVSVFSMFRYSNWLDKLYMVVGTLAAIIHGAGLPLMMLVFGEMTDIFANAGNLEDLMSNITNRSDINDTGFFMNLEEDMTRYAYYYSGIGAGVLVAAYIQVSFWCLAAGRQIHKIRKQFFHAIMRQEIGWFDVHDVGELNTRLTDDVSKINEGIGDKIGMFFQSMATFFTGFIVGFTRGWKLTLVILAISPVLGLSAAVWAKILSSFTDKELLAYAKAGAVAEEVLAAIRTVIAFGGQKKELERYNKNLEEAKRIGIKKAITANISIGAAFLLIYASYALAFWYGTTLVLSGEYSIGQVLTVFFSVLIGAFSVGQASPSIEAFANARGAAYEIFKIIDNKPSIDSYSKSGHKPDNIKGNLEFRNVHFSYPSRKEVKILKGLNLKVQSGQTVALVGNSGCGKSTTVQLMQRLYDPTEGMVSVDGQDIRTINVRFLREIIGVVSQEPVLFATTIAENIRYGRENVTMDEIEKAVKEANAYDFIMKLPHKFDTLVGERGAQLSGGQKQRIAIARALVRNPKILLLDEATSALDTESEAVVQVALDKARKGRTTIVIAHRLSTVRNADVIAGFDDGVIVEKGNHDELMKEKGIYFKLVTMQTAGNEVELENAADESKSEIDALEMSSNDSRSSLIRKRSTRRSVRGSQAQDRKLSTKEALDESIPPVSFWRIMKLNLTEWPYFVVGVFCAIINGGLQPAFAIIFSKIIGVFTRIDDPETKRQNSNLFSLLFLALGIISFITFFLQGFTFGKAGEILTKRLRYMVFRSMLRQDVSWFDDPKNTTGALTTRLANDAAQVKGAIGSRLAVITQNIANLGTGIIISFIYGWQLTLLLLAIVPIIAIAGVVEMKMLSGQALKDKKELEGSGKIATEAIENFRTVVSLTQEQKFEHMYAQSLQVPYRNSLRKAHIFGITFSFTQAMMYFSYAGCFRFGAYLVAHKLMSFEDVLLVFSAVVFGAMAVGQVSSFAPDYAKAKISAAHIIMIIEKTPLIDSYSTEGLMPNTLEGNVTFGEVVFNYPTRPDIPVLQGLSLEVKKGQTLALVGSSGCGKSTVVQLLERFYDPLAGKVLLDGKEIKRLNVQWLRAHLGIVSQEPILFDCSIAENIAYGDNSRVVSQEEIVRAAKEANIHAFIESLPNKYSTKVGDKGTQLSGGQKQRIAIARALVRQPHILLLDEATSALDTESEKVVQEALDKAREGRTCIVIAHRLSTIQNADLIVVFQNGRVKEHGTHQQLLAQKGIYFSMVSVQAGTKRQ

With `[La+3].c1cnc2c(c1)ccc1cccnc12.c1cnc2c(c1)ccc1cccnc12.c1cnc2c(c1)ccc1cccnc12` [KP772, [tris(1,10-phenanthroline)lanthanum(III)] trithiocyanate] the EC50 was greater than 100 µM.
